{
  "source": "patent US4377581A",
  "about": "“Chloro- and alkoxy-substituted-2,4-diaminoquinazolines” (Pfizer Inc., priority 1981, dated 1983)",
  "note": "“Also recorded” adds a separate entry of the source. Structures can show the parent of a compound that is named as a salt.",
  "data": [
    {"test_system": "not given", "assay": "not given", "settings": "literature; cited from earlier work", "values": [
      {"smiles": "COc1cc2nc(N3CCN(C(=O)c4ccco4)CC3)nc(N)c2cc1OC", "note": "[prazosin, 2-[4-(2-furoyl)piperazin-1-yl]-4-amino-6,7-dimethoxyquinazoline]", "antihypertensive activity / potency": "clinically useful antihypertensive agent"},
      {"smiles": "COc1cc2nc(N3CCN(C(=O)c4ccco4)CC3)nc(N)c2cc1O", "note": "[6-0-demethyl derivative]", "antihypertensive activity / potency": "considerably lower blood pressure lowering activity"},
      {"smiles": "COc1cc2c(N)nc(N3CCN(C(=O)OCC(C)(C)O)CC3)nc2c(OC)c1OC", "note": "[Trimazosin]", "antihypertensive activity / potency": "active antihypertensive agent; also recorded: less potent than prazosin"}
    ]},
    {"test_system": "not given", "assay": "not given", "settings": "Althuis et al., J. Med. Chem., 20, 146 (1977); cited from earlier work", "values": [
      {"smiles": "COc1cc2nc(N3CCN(C(=O)c4ccco4)CC3)nc(N)c2cc1O", "note": "[6-0-demethyl derivative]", "metabolite of prazosin": "major metabolite of prazosin"},
      {"smiles": "COc1cc2c(N)nc(N3CCN(C(=O)c4ccco4)CC3)nc2cc1O", "note": "[7-0-demethyl derivative]", "metabolite of prazosin": "less prevalent metabolite"}
    ]},
    {"test_system": "not listed separately", "assay": "Water solubility", "assay_type": "physicochemical", "settings": "Example 10 table; hydrochloride salts except as otherwise noted; solvent not given; read-out: Solubility", "units": {"solubility": "mg/mL"}, "values": [
      {"smiles": "C=CCN1CCN(c2nc(N)c3ccc(OC)c(OC)c3n2)CC1", "note": "[CH2 CHCH2]", "solubility": 50},
      {"smiles": "CCCCCOC(=O)N1CCN(c2nc(N)c3ccc(OC)c(OC)c3n2)CC1", "note": "[COO(CH2)4 CH3]", "solubility": 40},
      {"smiles": "CCCCOC(=O)N1CCN(c2nc(N)c3ccc(OC)c(OC)c3n2)CC1", "note": "[COO(CH 2)3 CH3]", "solubility": 90},
      {"smiles": "CCCOC(=O)N1CCN(c2nc(N)c3ccc(OC)c(OC)c3n2)CC1", "note": "[COO(CH2)2 CH3]", "solubility": 140},
      {"smiles": "COc1ccc2c(N)nc(N3CCN(C(=O)C4CCCO4)CC3)nc2c1OC", "note": "(stereo not shown)", "solubility": 150},
      {"smiles": "COc1ccc2c(N)nc(N3CCN(C(=O)c4ccccc4)CC3)nc2c1OC", "solubility": 50},
      {"smiles": "COc1ccc2c(N)nc(N3CCN(C(=O)C4COc5ccccc5O4)CC3)nc2c1OC", "note": "(stereo not shown)", "solubility": 15},
      {"smiles": "COc1ccc2c(N)nc(N3CCN(C(=O)c4cccs4)CC3)nc2c1OC", "solubility": 11},
      {"smiles": "CCOC(=O)N1CCN(c2nc(N)c3ccc(OC)c(OC)c3n2)CC1", "note": "[COOCH2 CH3]", "solubility": 50},
      {"smiles": "COc1ccc2c(N)nc(N3CCN(C(=O)OCCC(C)C)CC3)nc2c1OC", "note": "[COO(CH2)2 CH(CH3)2]", "solubility": 25},
      {"smiles": "COc1ccc2c(N)nc(N3CCN(c4cccc(C(F)(F)F)c4)CC3)nc2c1OC", "note": "[3-CF3 C6 H4]", "solubility": 8},
      {"smiles": "COC(=O)N1CCN(c2nc(N)c3ccc(OC)c(OC)c3n2)CC1", "note": "[COOCH3]", "solubility": 40},
      {"smiles": "COc1ccc2c(N)nc(N3CCN(c4ccccc4)CC3)nc2c1OC", "note": "[C6 H5]", "solubility": 25},
      {"smiles": "COc1ccc2c(N)nc(N3CCN(C(=O)OCC(C)C)CC3)nc2c1OC", "note": "[COOCH2 CH(CH3)2]", "solubility": 40},
      {"smiles": "COc1ccc2c(N)nc(N3CCN(Cc4ccccc4)CC3)nc2c1OC", "note": "[CH2 C6 H5]", "solubility": 100},
      {"smiles": "COc1ccc2c(N)nc(N3CCN(CCO)CC3)nc2c1OC", "note": "[CH2 CH2 OH]", "solubility": 95}
    ]},
    {"test_system": "not listed separately", "assay": "Water solubility", "assay_type": "physicochemical", "settings": "water; hydrochloride salts; read-out: water solubility", "units": {"solubility": "mg/mL"}, "values": [
      {"smiles": "COc1c(Cl)cc2c(N)nc(N3CCN(C(=O)OCC(C)(C)O)CC3)nc2c1OC.Cl", "note": "[Example 9A, 2-Methyl-2-hydroxypropyl 4-[4-amino-6-chloro-7,8-dimethoxyquinazolin-2-yl]piperazine-1-carboxylate hydrochloride]", "solubility": 35},
      {"smiles": "COc1cc2nc(N3CCN(C(=O)OCC(C)(C)O)CC3)nc(N)c2cc1Cl", "note": "[Example 9B, hydrochloride]", "solubility": 6},
      {"smiles": "COc1cc2nc(N3CCN(C(=O)c4ccco4)CC3)nc(N)c2cc1Cl.Cl", "note": "[Example 8B, 2-[4-(2-Furoyl)piperazine-1-yl]-4-amino-6-chloro-7-methoxyquinazoline hydrochloride]", "solubility": 5},
      {"smiles": "COc1ccc2c(N)nc(N3CCN(C(=O)c4ccco4)CC3)nc2c1OC.Cl", "note": "[Example 4, 2-[4-(2-Furoyl)piperazine-1-yl]-4-amino-7,8-dimethoxyquinazoline hydrochloride]", "solubility": 20},
      {"smiles": "COc1ccc2c(N)nc(N3CCCN(C(=O)C4CCCO4)CC3)nc2c1OC.Cl", "note": "(stereo not shown) [Example 12, 2-[4-(2-Tetrahydrofuroyl)homopiperazin-1-yl]-4-amino-7,8-dimethoxyquinazoline hydrochloride]", "solubility": 120},
      {"smiles": "COc1ccc2c(N)nc(N3CCC(Cc4ccccc4)CC3)nc2c1OC.Cl", "note": "[Example 13, 2-(4-Benzylpiperidin-1-yl)-4-amino-7,8-dimethoxyquinazoline hydrochloride]", "solubility": 6},
      {"smiles": "COc1ccc2c(N)nc(N3CCCN(C(=O)c4ccco4)CC3)nc2c1OC", "note": "[Example 11, 2-[4-(2-Furoyl-homopiperazine-1-yl]-4-amino-7,8-dimethoxyquinazoline hydrochloride]", "solubility": 30},
      {"smiles": "COc1c(Cl)cc2c(N)nc(N3CCN(C(=O)c4ccco4)CC3)nc2c1OC.Cl", "note": "[Example 8A, 2-[4-(2-Furoyl)piperazine-1-yl]-4-amino-6-chloro-7,8-dimethoxyquinazoline hydrochloride]", "solubility": 8}
    ]},
    {"test_system": "conscious renally hypertensive dogs", "assay": "Blood pressure lowering in conscious renally hypertensive dogs, oral", "assay_type": "in vivo, dog", "settings": "0.2 mg./hg. as printed, time of reduction not given", "procedure": "(§1) The antihypertensive activity of the compounds of the invention is shown by their ability to lower the blood pressure of conscious spontaneously hypertensive rats and conscious renally hypertensive dogs, when administered orally at doses of up to 30 mg./kg.\n(§2) Similarly, at the same dosage 2-[4-(2-hydroxy-2-methylprop-1-yloxycarbonyl)piperazin-1-yl]-4-amino-6-chloro-7-methoxyquinazoline, a particularly preferred compound of the invention, caused a reduction of 40 mm. Hg after one hour which increased only by 20 mm. Hg 6 hours after administration; and another particularly preferred compound: 2-[4-(2-furoyl)-1-piperazinyl]-4-amino-6-chloro-7-methoxyquinazoline effected a reduction in blood pressure of 40 mm. Hg which increased by only 5 mm. Hg six hours after the oral dose (0.2 mg./hg.) had been administered.", "units": {"reduction in blood pressure": "mm. Hg"}, "values": [
      {"smiles": "COc1cc2nc(N3CCN(C(=O)c4ccco4)CC3)nc(N)c2cc1Cl", "note": "[2-[4-(2-furoyl)-1-piperazinyl]-4-amino-6-chloro-7-methoxyquinazoline]", "reduction in blood pressure": 40}
    ]},
    {"test_system": "conscious renally hypertensive dogs", "assay": "Blood pressure lowering in conscious renally hypertensive dogs, oral", "assay_type": "in vivo, dog", "settings": "0.2 mg./kg.", "procedure": "as §1, §2", "values": [
      {"smiles": "COc1cc2nc(N3CCN(C(=O)c4ccco4)CC3)nc(N)c2cc1Cl", "note": "[2-[4-(2-furoyl)-1-piperazinyl]-4-amino-6-chloro-7-methoxyquinazoline]", "heart rate change": "no significant heart rate change", "other side effect": "no significant heart rate change or other unwanted side effect"},
      {"smiles": "COc1cc2nc(N3CCN(C(=O)OCC(C)(C)O)CC3)nc(N)c2cc1Cl", "note": "[2-[4-(2-hydroxy-2-methylprop-1-yloxycarbonyl)piperazin-1-yl]-4-amino-6-chloro-7-methoxyquinazoline]", "heart rate change": "no significant heart rate change", "other side effect": "no significant heart rate change or other unwanted side effect"},
      {"smiles": "COc1c(Cl)cc2c(N)nc(N3CCN(C(=O)OCC(C)(C)O)CC3)nc2c1OC", "note": "[2-[4-(2-hydroxy-2-methylprop-1-yloxycarbonyl)piperazin-1-yl]-4-amino-6-chloro-7,8-dimethoxyquinazoline]", "heart rate change": "no significant change in heart rate", "other side effect": "no significant change in heart rate or other side effect"}
    ]},
    {"test_system": "conscious renally hypertensive dogs", "assay": "Blood pressure lowering in conscious renally hypertensive dogs, oral", "assay_type": "in vivo, dog", "settings": "0.2 mg./kg., 4 hours, statistically significant", "procedure": "as §1, §2", "units": {"decrease of blood pressure after 4 hours": "mm. Hg"}, "values": [
      {"smiles": "COc1c(Cl)cc2c(N)nc(N3CCN(C(=O)OCC(C)(C)O)CC3)nc2c1OC", "note": "[2-[4-(2-hydroxy-2-methylprop-1-yloxycarbonyl)piperazin-1-yl]-4-amino-6-chloro-7,8-dimethoxyquinazoline]", "decrease of blood pressure after 4 hours": 30}
    ]},
    {"test_system": "conscious renally hypertensive dogs", "assay": "Blood pressure lowering in conscious renally hypertensive dogs, oral", "assay_type": "in vivo, dog", "settings": "0.2 mg./kg., 6 hours after dose", "procedure": "as §1, §2", "units": {"increase (return) of the reduced blood pressure 6 hours after administration": "mm. Hg"}, "values": [
      {"smiles": "COc1cc2nc(N3CCN(C(=O)c4ccco4)CC3)nc(N)c2cc1Cl", "note": "[2-[4-(2-furoyl)-1-piperazinyl]-4-amino-6-chloro-7-methoxyquinazoline]", "increase (return) of the reduced blood pressure 6 hours after administration": 5},
      {"smiles": "COc1cc2nc(N3CCN(C(=O)OCC(C)(C)O)CC3)nc(N)c2cc1Cl", "note": "[2-[4-(2-hydroxy-2-methylprop-1-yloxycarbonyl)piperazin-1-yl]-4-amino-6-chloro-7-methoxyquinazoline]", "increase (return) of the reduced blood pressure 6 hours after administration": 20}
    ]},
    {"test_system": "conscious renally hypertensive dogs", "assay": "Blood pressure lowering in conscious renally hypertensive dogs, oral", "assay_type": "in vivo, dog", "settings": "same dosage (0.2 mg./kg.), one hour", "procedure": "as §1, §2", "units": {"reduction of blood pressure after one hour": "mm. Hg"}, "values": [
      {"smiles": "COc1cc2nc(N3CCN(C(=O)OCC(C)(C)O)CC3)nc(N)c2cc1Cl", "note": "[2-[4-(2-hydroxy-2-methylprop-1-yloxycarbonyl)piperazin-1-yl]-4-amino-6-chloro-7-methoxyquinazoline]", "reduction of blood pressure after one hour": 40}
    ]}
  ]
}
